Experimental data: PMC10913484, “Hydroxyhexylitaconic acids as potent IMP-type metallo-β-lactamase inhibitors for controlling carbapenem resistance in Enterobacterales” (Microbiology Spectrum, 2024)
Values after ≈ are worked out from the molar mass of the structure shown. Like-named read-outs stand apart in the source and are kept apart here.

What was measured:
[1] = tested on: K. pneumoniae NUBL-8 (IMP-1); experiment: Susceptibility test, clinical isolate; assay type: cell-based; settings: Klebsiella pneumoniae
Method: (§1) Susceptibility testing, based on the microdilution method, was performed according to the guidelines of the Clinical and Laboratory Standards Institute ([36]).

[2] = tested on: K. pneumoniae MS5674 (NDM-1/VIM-1); experiment: Susceptibility test, clinical isolate; assay type: cell-based; settings: Klebsiella pneumoniae
Method: as §1

[3] = tested on: K. oxytoca NUBL-827 (IMP-1); experiment: Susceptibility test, clinical isolate; assay type: cell-based; settings: Klebsiella oxytoca
Method: as §1

[4] = tested on: K. pneumoniae AR0034 (IMP-4); experiment: Susceptibility test, clinical isolate; assay type: cell-based; settings: Klebsiella pneumoniae
Method: as §1

E. coli 465 (IMP-1) = experiment: Susceptibility test, clinical isolate; assay type: cell-based; settings: Escherichia coli
Method: as §1

E. coli 426 (IMP-1) = experiment: Susceptibility test, clinical isolate; assay type: cell-based; settings: Escherichia coli
Method: as §1

E. coli NUBL-22 (IMP-6) = experiment: Susceptibility test, clinical isolate; assay type: cell-based; settings: Escherichia coli
Method: as §1

IMP-1 [5] = target: T1, IMP-1 (Serratia marcescens, UniProt P52699); assay type: biochemical; settings: IMP-1 with agent (5 mM stock), dialysis
T1 construct: made in house
T1 sequence (P52699 19-246, looked up, species assumed): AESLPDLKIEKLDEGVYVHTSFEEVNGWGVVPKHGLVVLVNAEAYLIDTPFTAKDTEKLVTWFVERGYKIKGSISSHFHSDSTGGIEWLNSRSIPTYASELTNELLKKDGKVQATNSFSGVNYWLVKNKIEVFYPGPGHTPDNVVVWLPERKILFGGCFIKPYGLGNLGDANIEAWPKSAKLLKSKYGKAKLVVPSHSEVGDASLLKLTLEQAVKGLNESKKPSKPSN
Method: A total of 5 µL of IMP-1 (100 µM) and 2 µL of EDTA (5 mM) or HHIA (5 mM) were mixed in 100 µL of 20 mM HEPES buffer (pH 7.5) pretreated with Chelex 100 resin (Bio-Rad) and incubated on ice for 30 min. The samples were dialyzed against ultrapure water at 4°C for 6 h using Slide-A-Lyzer Dialysis Cassettes (cutoff, 3.5 K) (Thermo Fisher Scientific) and treated with proteinase K (FUJIFILM Wako Pure Chemical Corporation) at 37°C for 1 h. The zinc concentration in the samples was determined using a Zinc Assay Kit (MG Metallogenics).

SMB-1 = experiment: In vitro inhibition assay (IPM hydrolysis); assay type: biochemical; settings: even at high doses (100 µM)
Method: (§2) MBLs were incubated with HHIAs in 20 mM HEPES buffer (pH 7.5) containing 200 mM NaCl and 50 µg/mL BSA at 30°C for 5 min. IPM was added at a concentration of 100 µM, and the rate of IPM hydrolysis was monitored at 297 nm. The initial velocity (v0) rates were plotted against HHIA’s logarithmic concentrations, and the data were fitted to a four-parameter variable slope to obtain the half-maximal inhibitor concentration (IC50) values using GraphPad Prism 9 software (GraphPad Software). The inhibition constant (Ki) was determined as follows: v0 was measured after varying the concentrations of IPM and HHIAs, and inverse v0 (1/v0) was plotted against the inverse IPM concentration [1/(IPM)]. Lineweaver–Burk plots were created to obtain Ki values under the competitive inhibition model using the SigmaPlot 14 suite (Hulinks).

VIM-2 = target: T2, VIM-2 (Escherichia coli, UniProt Q5U7L7); experiment: In vitro inhibition assay (IPM hydrolysis); assay type: biochemical
T2 construct: made in house
Method: as §2

IMP-6 = target: T3, IMP-6 (Serratia marcescens, UniProt P52699, S214G); experiment: In vitro inhibition assay (IPM hydrolysis); assay type: biochemical
T3 construct: made in house
T3 sequence (P52699 19-246 S214G): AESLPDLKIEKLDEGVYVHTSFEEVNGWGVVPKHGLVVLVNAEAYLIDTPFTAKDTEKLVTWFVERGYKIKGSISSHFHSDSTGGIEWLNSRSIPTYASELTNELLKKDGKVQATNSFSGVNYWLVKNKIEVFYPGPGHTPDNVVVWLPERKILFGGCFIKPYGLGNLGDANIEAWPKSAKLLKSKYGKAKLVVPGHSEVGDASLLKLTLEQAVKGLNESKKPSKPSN
Method: as §2

NDM-1 = target: T4, NDM-1 (Klebsiella pneumoniae, UniProt C7C422); experiment: In vitro inhibition assay (IPM hydrolysis); assay type: biochemical; settings: even at high doses (100 µM)
T4 construct: made in house
T4 sequence (C7C422 29-270 limits assumed): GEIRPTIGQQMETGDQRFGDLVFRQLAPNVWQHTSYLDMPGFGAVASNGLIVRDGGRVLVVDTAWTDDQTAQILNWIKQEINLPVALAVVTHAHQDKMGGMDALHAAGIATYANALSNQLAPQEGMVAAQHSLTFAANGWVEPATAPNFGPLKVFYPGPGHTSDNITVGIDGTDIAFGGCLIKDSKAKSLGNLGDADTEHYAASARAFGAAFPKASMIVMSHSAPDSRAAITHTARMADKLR
Method: as §2

IMP-1 [6] = target: T1, IMP-1; experiment: In vitro inhibition assay (IPM hydrolysis); assay type: biochemical
Method: as §2

IMP-1 [7] = target: T1, IMP-1; assay type: binding; settings: DSF; control protein 52.5°C
Method: The DSF assay was performed using the Protein Thermal Shift Dye Kit (Thermo Fisher Scientific) and StepOnePlus Real-Time PCR Systems (Applied Biosystems) as follows: 2 µL of IMP-1 enzyme (100 µM), 1 µL of EDTA or HHIA solution (5 mM), 2.5 µL of diluted Protein Thermal Shift Dye (32×), 5 µL of Protein Thermal Shift buffer, and 9.5 µL of water were mixed in a test tube and incubated for 15 min at 4°C. Four replicates of each sample were performed. The fluorescence was monitored at 0.7°C increments from 4°C to 99°C. The relative fluorescence units were fitted with the Boltzmann equation using the TSA-CRAFT software to determine the melting point (Tm) ([47]).

E. coli DH5α pCL-SMB-1 = experiment: Susceptibility test (microdilution), transformant; assay type: cell-based; settings: for MPM MIC: E. coli DH5α pCL-SMB-1
Method: as §1

E. coli DH5α pBC-IMP-1 = experiment: Susceptibility test (microdilution), transformant; assay type: cell-based; settings: Escherichia coli
Method: as §1

E. coli DH5α pBC-NDM-1 = experiment: Susceptibility test (microdilution), transformant; assay type: cell-based; settings: for MPM MIC: E. coli DH5α pBC-NDM-1
Method: as §1

[8] = +HHIA 6.25 µg/mL, read-out: IPM MIC
[9] = +HHIA 6.25 μg/mL, read-out: MPM MIC
[10] = +HHIA 25 µg/mL, read-out: IPM MIC
[11] = +HHIA 25 μg/mL, read-out: MPM MIC
[12] = +HHIA 100 µg/mL, read-out: IPM MIC
[13] = +HHIA 100 μg/mL, read-out: MPM MIC
[14] = Escherichia coli, read-out: MPM MIC

With `C=C(C(=O)O)C(CCCCCCO)C(=O)O` (centres unmarked) [10-HHIA, 10-hydroxyhexylitaconic acid] the MIC [1, 8] was 2 µg/mL (≈ 8.69 µM), the MIC [1, 9] was 8 µg/mL (≈ 34.7 µM) and the MIC [1, 10] was 1 µg/mL (≈ 4.34 µM). It also gave an MIC [1, 11] of 2 µg/mL (≈ 8.69 µM), an MIC [1, 12] of 0.5 µg/mL (≈ 2.17 µM) and an MIC [1, 13] of 0.25 µg/mL (≈ 1.09 µM). For the same molecule, the MIC [2, 8] was 32 µg/mL (≈ 139 µM), the MIC [2, 9] was greater than 64 µg/mL and the MIC [2, 10] was 64 µg/mL (≈ 278 µM). For the same molecule, the MIC [2, 11] was greater than 64 µg/mL, the MIC [2, 12] was 32 µg/mL (≈ 139 µM) and the MIC [2, 13] was 64 µg/mL (≈ 278 µM). For the same molecule, the MIC [3, 8] was 8 µg/mL (≈ 34.7 µM), the MIC [3, 9] was 16 µg/mL (≈ 69.5 µM) and the MIC [3, 10] was 4 µg/mL (≈ 17.4 µM). The MIC [3, 11] was 8 µg/mL (≈ 34.7 µM), the MIC [3, 12] was 2 µg/mL (≈ 8.69 µM) and the MIC [3, 13] was 1 µg/mL (≈ 4.34 µM). The MIC ([4]; +HHIA 6.25 µg/mL, K. pneumoniae AR0034 (IMP-4), read-out: IPM MIC) was 2 µg/mL (≈ 8.69 µM), the MIC ([4]; +HHIA 6.25 μg/mL, K. pneumoniae AR0034 (IMP-4), read-out: MPM MIC) was 4 µg/mL (≈ 17.4 µM) and the MIC ([4]; +HHIA 25 µg/mL, K. pneumoniae AR0034 (IMP-4), read-out: IPM MIC) was 1 µg/mL (≈ 4.34 µM). For the same molecule, the MIC ([4]; +HHIA 25 μg/mL, K. pneumoniae AR0034 (IMP-4), read-out: MPM MIC) was 0.5 µg/mL (≈ 2.17 µM), the MIC ([4]; +HHIA 100 µg/mL, K. pneumoniae AR0034 (IMP-4), read-out: IPM MIC) was 0.5 µg/mL (≈ 2.17 µM) and the MIC ([4]; read-out: MPM MIC) was 0.125 µg/mL (≈ 0.543 µM). It also gave an MIC (E. coli 465 (IMP-1); [8]) of 16 µg/mL (≈ 69.5 µM), an MIC (E. coli 465 (IMP-1); [9]) of 16 µg/mL (≈ 69.5 µM) and an MIC (E. coli 465 (IMP-1); [10]) of 4 µg/mL (≈ 17.4 µM). It also gave an MIC (E. coli 465 (IMP-1); [11]) of 4 µg/mL (≈ 17.4 µM), an MIC (E. coli 465 (IMP-1); [12]) of 1 µg/mL (≈ 4.34 µM) and an MIC (E. coli 465 (IMP-1); [13]) of 0.25 µg/mL (≈ 1.09 µM). The MIC (E. coli 426 (IMP-1); [8]) was 8 µg/mL (≈ 34.7 µM), the MIC (E. coli 426 (IMP-1); [9]) was 8 µg/mL (≈ 34.7 µM) and the MIC (E. coli 426 (IMP-1); [10]) was 4 µg/mL (≈ 17.4 µM). For the same molecule, the MIC (E. coli 426 (IMP-1); [11]) was 1 µg/mL (≈ 4.34 µM), the MIC (E. coli 426 (IMP-1); [12]) was 2 µg/mL (≈ 8.69 µM) and the MIC (E. coli 426 (IMP-1); [13]) was 0.25 µg/mL (≈ 1.09 µM). For the same molecule, the MIC (E. coli NUBL-22 (IMP-6); [8]) was 1 µg/mL (≈ 4.34 µM), the MIC (E. coli NUBL-22 (IMP-6); [9]) was 16 µg/mL (≈ 69.5 µM) and the MIC (E. coli NUBL-22 (IMP-6); [10]) was 0.5 µg/mL (≈ 2.17 µM). The MIC (E. coli NUBL-22 (IMP-6); [11]) was 8 µg/mL (≈ 34.7 µM), the MIC (E. coli NUBL-22 (IMP-6); [12]) was 0.5 µg/mL (≈ 2.17 µM) and the MIC (E. coli NUBL-22 (IMP-6); [13]) was 1 µg/mL (≈ 4.34 µM). The “Zinc ions in IMP-1 after treatment” value (IMP-1 [5]) was “did not cause a significant loss of zinc ions”, the “Inhibition of hydrolyzing activity of SMB-1” value (SMB-1) was “did not inhibit” and the “Inhibitory activity against VIM-2” value (VIM-2) was “moderate”. For the same molecule, the Ki (IMP-6) was 21 µM, the “Inhibition of hydrolyzing activity of NDM-1” value (NDM-1) was “did not inhibit” and the IC50 (IMP-1 [6]) was 31.6 µM. For the same molecule, the Ki (IMP-1 [6]) was 5 µM, the “Inhibition mode for IMP-1” value (IMP-1 [6]; Lineweaver–Burk plots) was “competitive inhibitors” and the “Melting temperature (Tm) of treated IMP-1” value (IMP-1 [7]) was 55.6 °C. The “MPM MIC” value (E. coli DH5α pCL-SMB-1; +agent 25 μg/mL) was 32 µg/mL, the “MPM MIC” value (E. coli DH5α pCL-SMB-1; +agent 100 μg/mL) was 32 µg/mL and the MIC (E. coli DH5α pCL-SMB-1; [14]) was 32 µg/mL (≈ 139 µM). For the same molecule, the MIC (E. coli DH5α pBC-IMP-1; read-out: MPM MIC, +agent 25 μg/mL) was 0.125 µg/mL (≈ 0.543 µM), the MIC (E. coli DH5α pBC-IMP-1; read-out: MPM MIC, +agent 100 μg/mL) was no more than 0.0625 µg/mL and the “MPM MIC” value (E. coli DH5α pBC-NDM-1; +agent 25 μg/mL) was 64 µg/mL. For the same molecule, the “MPM MIC” value (E. coli DH5α pBC-NDM-1; +agent 100 μg/mL) was 64 µg/mL and the MIC (E. coli DH5α pBC-NDM-1; [14]) was 64 µg/mL (≈ 278 µM).
